Blank lines part the entries; values can stand above or below the compound they belong to.
Key:
[1] = target: T1, Ephrin type-A receptor 1 (Homo sapiens) (UniProt P21709); experiment: Inhibition of human recombinant EphA1 at 500 nM in presence of ATP by radiometric assay relative to control
T1 sequence (whole entry): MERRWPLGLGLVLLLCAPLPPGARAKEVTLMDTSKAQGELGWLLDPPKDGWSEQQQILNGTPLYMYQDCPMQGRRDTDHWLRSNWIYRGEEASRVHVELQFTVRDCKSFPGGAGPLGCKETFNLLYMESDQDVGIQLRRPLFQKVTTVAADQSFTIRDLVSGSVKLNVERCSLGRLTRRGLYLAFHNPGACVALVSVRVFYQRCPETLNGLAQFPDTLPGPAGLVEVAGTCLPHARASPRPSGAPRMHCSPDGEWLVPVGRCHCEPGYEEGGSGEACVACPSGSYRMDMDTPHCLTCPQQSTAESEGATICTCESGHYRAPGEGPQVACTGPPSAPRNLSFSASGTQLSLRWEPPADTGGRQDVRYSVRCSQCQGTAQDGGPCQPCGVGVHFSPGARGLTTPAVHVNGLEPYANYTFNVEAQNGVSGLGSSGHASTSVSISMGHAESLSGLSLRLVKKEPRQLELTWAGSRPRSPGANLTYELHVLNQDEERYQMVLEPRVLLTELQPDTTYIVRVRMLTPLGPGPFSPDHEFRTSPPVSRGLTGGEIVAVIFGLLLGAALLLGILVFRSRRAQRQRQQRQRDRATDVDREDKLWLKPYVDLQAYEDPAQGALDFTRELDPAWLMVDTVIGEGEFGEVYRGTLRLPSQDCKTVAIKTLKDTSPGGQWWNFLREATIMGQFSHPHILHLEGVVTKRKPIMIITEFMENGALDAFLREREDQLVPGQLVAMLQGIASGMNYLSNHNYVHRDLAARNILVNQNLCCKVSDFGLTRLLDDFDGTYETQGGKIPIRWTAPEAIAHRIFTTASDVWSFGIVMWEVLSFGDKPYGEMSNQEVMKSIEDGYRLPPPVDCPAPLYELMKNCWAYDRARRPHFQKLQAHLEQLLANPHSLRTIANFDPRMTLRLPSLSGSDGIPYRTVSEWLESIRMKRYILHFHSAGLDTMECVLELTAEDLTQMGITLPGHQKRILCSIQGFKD

[2] = target: TRAF2 and NCK-interacting protein kinase (Homo sapiens) (UniProt Q9UKE5); experiment: Inhibition of human recombinant TNIK at 500 nM in presence of ATP by radiometric assay relative to control
[3] = target: Serine/threonine-protein kinase PLK1 (Homo sapiens) (UniProt P53350); experiment: Inhibition of human recombinant PLK1 at 500 nM related to control ULK1
[4] = target: Vascular endothelial growth factor receptor 2 (Homo sapiens) (UniProt P35968); experiment: Inhibition of human recombinant KDR at 15 nM in presence of ATP by radiometric assay relative to control
[5] = test system: G protein-coupled receptor kinase 7 (Homo sapiens); experiment: Inhibition of human recombinant GPRK7 at 15 nM in presence of ATP by radiometric assay relative to control
[6] = target: Homeodomain-interacting protein kinase 3 (Homo sapiens) (UniProt Q9H422); experiment: Inhibition of human recombinant HIPK3 at 40 nM related to control ULK1
[7] = target: Serine/threonine-protein kinase N2 (Homo sapiens) (UniProt Q16513); experiment: Inhibition of human recombinant PKN2 at 40 nM related to control ULK1
[8] = target: T2, Serine/threonine-protein kinase ULK2 (Homo sapiens) (UniProt Q8IYT8); experiment: Inhibition of human recombinant ULK2 at 40 nM related to control ULK1
T2 sequence (whole entry): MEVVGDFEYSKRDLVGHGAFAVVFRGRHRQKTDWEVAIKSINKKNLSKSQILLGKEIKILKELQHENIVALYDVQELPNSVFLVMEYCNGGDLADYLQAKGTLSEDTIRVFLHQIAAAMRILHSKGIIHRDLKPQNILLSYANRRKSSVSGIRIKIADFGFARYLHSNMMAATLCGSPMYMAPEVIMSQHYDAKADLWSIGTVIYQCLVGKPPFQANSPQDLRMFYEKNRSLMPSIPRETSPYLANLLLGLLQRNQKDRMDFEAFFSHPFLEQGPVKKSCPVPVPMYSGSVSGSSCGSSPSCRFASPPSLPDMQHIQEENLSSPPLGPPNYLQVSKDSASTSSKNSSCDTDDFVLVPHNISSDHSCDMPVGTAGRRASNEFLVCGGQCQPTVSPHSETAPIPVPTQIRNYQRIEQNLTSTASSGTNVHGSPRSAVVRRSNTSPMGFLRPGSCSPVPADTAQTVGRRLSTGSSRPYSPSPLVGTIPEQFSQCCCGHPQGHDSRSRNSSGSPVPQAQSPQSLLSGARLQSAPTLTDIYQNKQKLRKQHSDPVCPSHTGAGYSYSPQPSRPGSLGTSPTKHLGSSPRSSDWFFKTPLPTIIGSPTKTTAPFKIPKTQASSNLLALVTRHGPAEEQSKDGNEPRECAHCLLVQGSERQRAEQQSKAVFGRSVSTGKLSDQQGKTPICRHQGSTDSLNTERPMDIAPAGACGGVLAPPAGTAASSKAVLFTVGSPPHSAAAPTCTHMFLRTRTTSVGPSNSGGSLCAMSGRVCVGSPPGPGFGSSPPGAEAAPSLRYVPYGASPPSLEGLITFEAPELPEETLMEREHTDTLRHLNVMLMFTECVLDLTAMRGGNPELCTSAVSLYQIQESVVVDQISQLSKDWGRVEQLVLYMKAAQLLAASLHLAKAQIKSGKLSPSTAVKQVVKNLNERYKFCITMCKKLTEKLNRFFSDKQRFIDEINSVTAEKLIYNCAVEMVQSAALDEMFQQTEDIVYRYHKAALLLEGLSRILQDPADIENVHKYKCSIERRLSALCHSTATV

Serine/threonine-protein kinase PLK1 (Homo sapiens), sequence (P53350 whole entry): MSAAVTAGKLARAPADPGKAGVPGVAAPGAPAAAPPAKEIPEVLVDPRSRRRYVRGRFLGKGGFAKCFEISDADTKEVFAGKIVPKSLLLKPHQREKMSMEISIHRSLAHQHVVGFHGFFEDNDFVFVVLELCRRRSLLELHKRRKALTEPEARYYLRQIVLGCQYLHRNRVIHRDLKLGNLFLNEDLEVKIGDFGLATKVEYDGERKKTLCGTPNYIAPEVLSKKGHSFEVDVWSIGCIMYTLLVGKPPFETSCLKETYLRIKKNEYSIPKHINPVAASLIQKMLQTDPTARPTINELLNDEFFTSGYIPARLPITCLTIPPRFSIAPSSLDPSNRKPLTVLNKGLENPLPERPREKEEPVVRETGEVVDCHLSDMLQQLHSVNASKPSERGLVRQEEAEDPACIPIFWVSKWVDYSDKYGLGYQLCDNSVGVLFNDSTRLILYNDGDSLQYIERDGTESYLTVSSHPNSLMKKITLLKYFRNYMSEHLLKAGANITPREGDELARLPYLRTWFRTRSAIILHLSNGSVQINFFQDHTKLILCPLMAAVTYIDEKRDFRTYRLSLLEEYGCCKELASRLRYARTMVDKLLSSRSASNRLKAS
Serine/threonine-protein kinase N2 (Homo sapiens), sequence (Q16513 whole entry, looked up): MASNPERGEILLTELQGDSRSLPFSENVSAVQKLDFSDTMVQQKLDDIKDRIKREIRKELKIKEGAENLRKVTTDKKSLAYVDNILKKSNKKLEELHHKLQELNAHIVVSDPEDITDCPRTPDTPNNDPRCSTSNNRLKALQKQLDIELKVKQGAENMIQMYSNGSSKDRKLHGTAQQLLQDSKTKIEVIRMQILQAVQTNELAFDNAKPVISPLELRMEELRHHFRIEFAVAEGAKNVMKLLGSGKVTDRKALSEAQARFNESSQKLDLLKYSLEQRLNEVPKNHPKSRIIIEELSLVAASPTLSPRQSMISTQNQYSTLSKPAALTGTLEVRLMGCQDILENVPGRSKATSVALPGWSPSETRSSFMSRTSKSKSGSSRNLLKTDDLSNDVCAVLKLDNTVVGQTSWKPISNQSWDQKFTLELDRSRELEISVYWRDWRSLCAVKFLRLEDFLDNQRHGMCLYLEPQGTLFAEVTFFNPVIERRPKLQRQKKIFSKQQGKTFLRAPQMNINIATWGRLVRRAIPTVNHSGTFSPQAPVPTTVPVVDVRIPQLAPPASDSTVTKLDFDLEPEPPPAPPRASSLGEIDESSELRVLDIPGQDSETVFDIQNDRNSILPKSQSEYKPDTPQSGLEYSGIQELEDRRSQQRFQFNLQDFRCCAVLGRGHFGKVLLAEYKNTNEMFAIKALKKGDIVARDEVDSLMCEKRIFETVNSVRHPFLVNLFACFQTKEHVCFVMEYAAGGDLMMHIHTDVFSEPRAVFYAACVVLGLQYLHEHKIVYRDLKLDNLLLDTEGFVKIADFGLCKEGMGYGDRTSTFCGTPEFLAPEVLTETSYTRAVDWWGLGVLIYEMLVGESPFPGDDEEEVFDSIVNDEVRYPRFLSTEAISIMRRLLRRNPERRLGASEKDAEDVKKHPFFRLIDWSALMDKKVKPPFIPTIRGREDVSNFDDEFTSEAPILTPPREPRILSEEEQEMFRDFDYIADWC
Vascular endothelial growth factor receptor 2 (Homo sapiens), sequence (P35968 whole entry): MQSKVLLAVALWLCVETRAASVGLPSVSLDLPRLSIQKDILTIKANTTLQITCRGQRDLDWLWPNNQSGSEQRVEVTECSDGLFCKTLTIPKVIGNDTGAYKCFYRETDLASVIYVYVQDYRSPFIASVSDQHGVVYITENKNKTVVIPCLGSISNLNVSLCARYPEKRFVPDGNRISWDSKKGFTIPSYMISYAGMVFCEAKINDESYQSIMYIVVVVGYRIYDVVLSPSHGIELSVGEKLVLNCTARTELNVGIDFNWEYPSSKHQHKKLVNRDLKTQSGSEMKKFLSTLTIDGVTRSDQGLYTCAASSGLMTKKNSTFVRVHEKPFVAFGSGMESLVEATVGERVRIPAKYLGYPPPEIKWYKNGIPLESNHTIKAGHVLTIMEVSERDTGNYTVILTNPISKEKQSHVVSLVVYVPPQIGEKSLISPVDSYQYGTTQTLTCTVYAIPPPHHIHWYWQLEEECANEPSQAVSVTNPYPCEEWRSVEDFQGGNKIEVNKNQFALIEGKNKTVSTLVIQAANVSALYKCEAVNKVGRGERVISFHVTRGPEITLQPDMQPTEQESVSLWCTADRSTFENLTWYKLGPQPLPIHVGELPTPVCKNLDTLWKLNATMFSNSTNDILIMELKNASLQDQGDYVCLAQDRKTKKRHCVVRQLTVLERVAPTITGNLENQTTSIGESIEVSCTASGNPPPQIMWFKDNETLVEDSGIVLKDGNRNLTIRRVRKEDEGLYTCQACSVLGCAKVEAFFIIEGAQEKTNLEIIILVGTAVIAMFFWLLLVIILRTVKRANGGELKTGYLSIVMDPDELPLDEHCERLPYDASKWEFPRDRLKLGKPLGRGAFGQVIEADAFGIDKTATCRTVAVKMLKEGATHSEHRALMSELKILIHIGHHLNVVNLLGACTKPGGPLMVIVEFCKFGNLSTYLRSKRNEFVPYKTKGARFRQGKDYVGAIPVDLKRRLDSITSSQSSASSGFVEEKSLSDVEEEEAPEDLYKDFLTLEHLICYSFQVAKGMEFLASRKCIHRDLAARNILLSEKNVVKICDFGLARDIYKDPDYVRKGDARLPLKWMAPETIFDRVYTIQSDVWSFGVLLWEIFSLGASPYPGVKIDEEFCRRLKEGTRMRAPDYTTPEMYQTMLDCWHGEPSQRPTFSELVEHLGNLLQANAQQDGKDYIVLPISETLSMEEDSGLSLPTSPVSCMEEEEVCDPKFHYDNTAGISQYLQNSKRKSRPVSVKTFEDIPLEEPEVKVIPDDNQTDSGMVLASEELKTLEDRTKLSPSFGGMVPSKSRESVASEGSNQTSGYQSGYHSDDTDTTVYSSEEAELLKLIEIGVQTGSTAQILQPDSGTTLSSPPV
Homeodomain-interacting protein kinase 3 (Homo sapiens), sequence (Q9H422 whole entry, looked up): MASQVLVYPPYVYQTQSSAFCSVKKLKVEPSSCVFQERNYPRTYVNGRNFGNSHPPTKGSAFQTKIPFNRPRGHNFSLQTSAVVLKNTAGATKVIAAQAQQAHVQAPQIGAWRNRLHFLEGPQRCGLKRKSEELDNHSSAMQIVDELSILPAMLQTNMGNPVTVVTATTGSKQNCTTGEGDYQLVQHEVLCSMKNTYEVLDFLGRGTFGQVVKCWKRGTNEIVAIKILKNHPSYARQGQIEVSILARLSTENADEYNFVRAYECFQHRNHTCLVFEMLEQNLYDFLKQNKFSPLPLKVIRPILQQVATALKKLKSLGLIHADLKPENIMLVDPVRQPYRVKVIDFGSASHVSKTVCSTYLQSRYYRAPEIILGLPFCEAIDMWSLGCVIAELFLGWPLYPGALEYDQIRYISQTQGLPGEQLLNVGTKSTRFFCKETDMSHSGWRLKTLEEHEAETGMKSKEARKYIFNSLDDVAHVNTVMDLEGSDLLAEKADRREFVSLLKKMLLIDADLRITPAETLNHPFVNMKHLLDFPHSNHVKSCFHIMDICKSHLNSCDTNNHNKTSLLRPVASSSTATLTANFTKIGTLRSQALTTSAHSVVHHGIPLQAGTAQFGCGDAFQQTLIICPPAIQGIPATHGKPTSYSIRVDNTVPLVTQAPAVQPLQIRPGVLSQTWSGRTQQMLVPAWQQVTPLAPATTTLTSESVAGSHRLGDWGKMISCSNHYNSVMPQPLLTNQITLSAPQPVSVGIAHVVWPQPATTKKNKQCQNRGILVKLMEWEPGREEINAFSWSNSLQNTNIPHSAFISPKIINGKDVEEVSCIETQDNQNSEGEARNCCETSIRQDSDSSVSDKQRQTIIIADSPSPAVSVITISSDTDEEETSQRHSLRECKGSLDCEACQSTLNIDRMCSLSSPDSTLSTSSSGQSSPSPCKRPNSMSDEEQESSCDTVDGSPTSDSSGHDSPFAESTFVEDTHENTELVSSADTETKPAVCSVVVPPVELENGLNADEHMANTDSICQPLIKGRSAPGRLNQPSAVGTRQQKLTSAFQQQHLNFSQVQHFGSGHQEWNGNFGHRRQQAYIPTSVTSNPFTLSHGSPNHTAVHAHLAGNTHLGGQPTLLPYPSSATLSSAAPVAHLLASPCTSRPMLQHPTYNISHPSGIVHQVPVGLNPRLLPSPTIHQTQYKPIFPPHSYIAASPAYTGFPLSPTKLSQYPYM

inhibition [1]: 13% | inhibition [2]: 4% | fold change (FC) [3]: 0
SMILES: CNC(=O)c1ccccc1Oc1nc(Nc2cc(OC)c(OC)c(OC)c2)ncc1Br

inhibition [4]: 20% | inhibition [5]: 0%
SMILES: CC(C)[C@H](NC(=O)c1cc(-c2cnn3cc(-c4ccc(OCCN5CCCCC5)cc4)cnc23)cs1)C(F)(F)F

fold change (FC) [6]: 0.07 | fold change (FC) [7]: 0 | fold change (FC) [8]: 0.63
SMILES: O=C(N[C@@H](C1CC1)C(F)(F)F)c1cc(-c2cnn3cc(-c4ccc(F)cc4)cnc23)cs1

Reference: ChEMBL document CHEMBL5653631, “A Potent and Selective ULK1 Inhibitor Suppresses Autophagy and Sensitizes Cancer Cells to Nutrient Stress” (iScience, 2018)
